According to patent US11596639B2, “Substituted indole Mcl-1 inhibitors” (Vanderbilt University, priority 2016, dated 2023):
Read-outs that look alike come from different tables or passages of the source.

Assays:
[1] = system: H929 human cancer cell lines; assay: Cellular viability / proliferation (Cell TiterGlo, 72 h); type: cell-based
Summary of the method: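 Plating is at 1,000 cells/well in 10% FBS medium; after 24 h, compound is added as a 2-fold series starting at 50 μM with under 1% DMSO.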

Mcl-1 = Mcl-1 (Homo sapiens (Human), UniProt Q07820); assay: TR-FRET binding assay, FITC-Bak peptide and MBP-tagged Mcl-1; settings: read-out: Ki for Inhibition of Mcl-1 by TR-FRET assay
Mcl-1, sequence (Q07820 172-327): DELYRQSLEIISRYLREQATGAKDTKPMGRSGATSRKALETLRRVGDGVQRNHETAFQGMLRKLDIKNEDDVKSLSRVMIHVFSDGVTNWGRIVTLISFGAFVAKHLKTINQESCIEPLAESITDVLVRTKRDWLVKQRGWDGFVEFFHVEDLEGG
Procedure: Compounds are diluted in DMSO in a 16-point, semilog serial dilution scheme. […] The plate was mixed and incubated for 3 hours at room temperature. […] TR-FRET signal is plotted and IC50 and Ki values are calculated in the same manner as the fluorescence polarization anisotropy based competition assays.

[2] = Homo sapiens, NCI-H929, 72 h, read-out: GI50 on cellular proliferation of H929 human cancer cell lines, H929 cells, 72 h, Cell TiterGlo, 10% FBS

Row | SMILES | GI50 [1, 2] [nM] | Ki (Mcl-1) [nM] | GI50 ([1]; read-out: GI50 on cellular proliferation of H929 human cancer cell lines, H929 cells, 72 h, Cell TiterGlo, 10% FBS) [nM]
1 | COCCn1c(C(=O)O)cc2c(OC)ccc(N3C[C@@H](C)n4c(c(CCCOc5cc(C)c(Cl)c(C)c5)c5ccc(Cl)c(-c6c(C)nn(C)c6C)c54)C3=O)c21 [Example 587, (R)-7-(7-chloro-10-(3-(4-chloro-3,5-dimethylphenoxy)propyl)-4-methyl-1-oxo-6-(1,3,5-trimethyl-1H-pyrazol-4-yl)-3,4-dihydropyrazino[1,2-a]indol-2(1H)-yl)-4-methoxy-1-(2-methoxyethyl)-1H-indole-2-carboxylic acid] | < 200 | < 0.2 | 
2 | CC(=O)N1CCN(c2cccc(Cn3c(C(=O)O)cc4cc(C)cc(N5C[C@@H](C)n6c(c(CCCOc7cc(C)c(Cl)c(C)c7)c7ccc(Cl)c(-c8c(C)nn(C)c8C)c76)C5=O)c43)n2)CC1 [Example 528, (R)-1-((6-(4-acetylpiperazin-1-yl)pyridin-2-yl)methyl)-7-(7-chloro-10-(3-(4-chloro-3,5-dimethylphenoxy)propyl)-4-methyl-1-oxo-6-(1,3,5-trimethyl-1H-pyrazol-4-yl)-3,4-dihydropyrazino[1,2-a]indol-2(1H)-yl)-5-methyl-1H-indole-2-carboxylic acid] | 870 | < 0.2 | 
3 | Cc1cc(OCCCc2c3n(c4c(-c5c(C)nn(C)c5C)c(Cl)ccc24)[C@H](C)CN(c2cc(NC(=O)CCN(C)C)cc4c(C(=O)O)cn(C)c24)C3=O)cc(C)c1Cl [Example 541, (R)-7-(7-Chloro-10-(3-(4-chloro-3,5-dimethylphenoxy)propyl)-4-methyl-1-oxo-6-(1,3,5-trimethyl-1H-pyrazol-4-yl)-3,4-dihydropyrazino[1,2-a]indol-2(1H)-yl)-5-(3-(dimethylamino)propanamido)-1-methyl-1H-indole-3-carboxylic acid] | 1700 | 0.53 | 
4 | Cc1ccc(Cn2cc(C(=O)O)c3cccc(N4C[C@@H](C)n5c(c(CCCOc6cc(C)c(Cl)c(C)c6)c6ccc(Cl)c(-c7c(C)nn(C)c7C)c65)C4=O)c32)nc1 (single isomer, unassigned) [Example 507] |  | 0.72 | 1400
5 | COc1cc(N2C[C@@H](C)n3c(c(CCCOc4cc(C)c(Cl)c(C)c4)c4ccc(Cl)c(-c5c(C)ncnc5C)c43)C2=O)c2c(c1)cc(C(=O)O)n2Cc1cc(C)ccn1 [Example 565, (R)-7-(7-chloro-10-(3-(4-chloro-3,5-dimethylphenoxy)propyl)-6-(4,6-dimethylpyrimidin-5-yl)-4-methyl-1-oxo-3,4-dihydropyrazino[1,2-a]indol-2(1H)-yl)-5-methoxy-1-((4-methylpyridin-2-yl)methyl)-1H-indole-2-carboxylic acid] | < 200 | < 0.2 | 
6 | Cc1cc(OCCCc2c3n(c4c(-c5c(C)nn(C)c5C)c(Cl)ccc24)[C@H](C)CN(c2cn(C[C@@H]4CCCN4C)c4ccc(C(=O)O)cc24)C3=O)cc(C)c1Cl [Example 690, 3-((R)-7-chloro-10-(3-(4-chloro-3,5-dimethylphenoxy)propyl)-4-methyl-1-oxo-6-(1,3,5-trimethyl-1H-pyrazol-4-yl)-3,4-dihydropyrazino[1,2-a]indol-2(1H)-yl)-1-(((S)-1-methylpyrrolidin-2-yl)methyl)-1H-indole-5-carboxylic acid] | 330 | 0.26 | 
7 | Cc1cc(OCCCc2c3n(c4c(-c5c(C)nn(C)c5C)c(Cl)ccc24)[C@H](C)CN(c2cn(C)c4ncc(C(=O)O)nc24)C3=O)cc(C)c1Cl [Example 585, (R)-7-(7-chloro-10-(3-(4-chloro-3,5-dimethylphenoxy)propyl)-4-methyl-1-oxo-6-(1,3,5-trimethyl-1H-pyrazol-4-yl)-3,4-dihydropyrazino[1,2-a]indol-2(1H)-yl)-5-methyl-5H-pyrrolo[2,3-b]pyrazine-2-carboxylic acid] | 1500 | < 0.2 | 
8 | Cc1cc(OCCCc2c3n(c4c(-c5c(C)nn(C)c5C)c(Cl)ccc24)[C@H](C)CN(c2cn(CCN4CCN(C)CC4)c4ccc(C(=O)O)cc24)C3=O)cc(C)c1Cl [Example 569, (R)-3-(7-chloro-10-(3-(4-chloro-3,5-dimethylphenoxy)propyl)-4-methyl-1-oxo-6-(1,3,5-trimethyl-1H-pyrazol-4-yl)-3,4-dihydropyrazino[1,2-a]indol-2(1H)-yl)-1-(2-(4-methylpiperazin-1-yl)ethyl)-1H-indole-5-carboxylic acid] | 470 | 0.49 | 
9 | COCCn1cc(N2C[C@@H](C)n3c(c(CCCOc4cc(C)c(Cl)c(C)c4)c4ccc(Cl)c(-c5c(C)nn(C)c5C)c43)C2=O)c2cc(-c3ncn(CC4CC4)n3)ccc21 [Example 589, (R)-7-Chloro-10-(3-(4-chloro-3,5-dimethylphenoxy)propyl)-2-(5-(1-(cyclopropylmethyl)-1H-1,2,4-triazol-3-yl)-1-(2-methoxyethyl)-1H-indol-3-yl)-4-methyl-6-(1,3,5-trimethyl-1H-pyrazol-4-yl)-3,4-dihydropyrazino[1,2-a]indol-1(2H)-one] | 1100 | 1.7 | 
10 | COCc1cc(N2C[C@@H](C)n3c(c(CCCOc4cc(C)c(Cl)c(C)c4)c4ccc(Cl)c(-c5c(C)nn(C)c5C)c43)C2=O)c2c(c1)cc(C(=O)O)n2Cc1ccccn1 [Example 691, (R)-7-(7-chloro-10-(3-(4-chloro-3,5-dimethylphenoxy)propyl)-4-methyl-1-oxo-6-(1,3,5-trimethyl-1H-pyrazol-4-yl)-3,4-dihydropyrazino[1,2-a]indol-2(1H)-yl)-5-(methoxymethyl)-1-(pyridin-2-ylmethyl)-1H-indole-2-carboxylic acid] | < 200 | < 0.2 | 
11 | COCCOC1CCN(Cc2cc(N3C[C@@H](C)n4c(c(CCCOc5cc(C)c(Cl)c(C)c5)c5ccc(Cl)c(-c6c(C)nn(C)c6C)c54)C3=O)c3c(c2)cc(C(=O)O)n3C)CC1 [Example 650, (R)-7-(7-chloro-10-(3-(4-chloro-3,5-dimethylphenoxy)propyl)-4-methyl-1-oxo-6-(1,3,5-trimethyl-1H-pyrazol-4-yl)-3,4-dihydropyrazino[1,2-a]indol-2(1H)-yl)-5-((4-(2-methoxyethoxy)piperidin-1-yl)methyl)-1-methyl-1H-indole-2-carboxylic acid] | 210 | < 0.2 | 
12 | COCCOCc1cc(N2C[C@@H](C)n3c(c(CCCOc4cc(C)c(Cl)c(C)c4)c4ccc(Cl)c(-c5c(C)nn(C)c5C)c43)C2=O)c2c(c1)cc(C(=O)O)n2C [Example 595, (R)-7-(7-chloro-10-(3-(4-chloro-3,5-dimethylphenoxy)propyl)-4-methyl-1-oxo-6-(1,3,5-trimethyl-1H-pyrazol-4-yl)-3,4-dihydropyrazino[1,2-a]indol-2(1H)-yl)-5-((2-methoxyethoxy)methyl)-1-methyl-1H-indole-2-carboxylic acid] | < 200 | < 0.2 | 
13 | Cc1cc(OCCCc2c3n(c4c(-c5c(C)nc(CN6CCOCC6)nc5C)c(Cl)ccc24)[C@H](C)CN(c2cn(C)c4ccc(-c5ncn(C)n5)cc24)C3=O)cc(C)c1Cl [Example 503, (R)-7-chloro-10-(3-(4-chloro-3,5-dimethylphenoxy)propyl)-6-(4,6-dimethyl-2-(morpholinomethyl)pyrimidin-5-yl)-4-methyl-2-(1-methyl-5-(1-methyl-1H-1,2,4-triazol-3-yl)-1H-indol-3-yl)-3,4-dihydropyrazino[1,2-a]indol-1(2H)-one] | < 200 | 3.7 | 
14 | Cc1cc(OCCCc2c3n(c4c(-c5c(C)nn(C)c5C)c(Cl)ccc24)[C@H](C)CN(c2cc(CO)cc4c(C(=O)O)cn(C)c24)C3=O)cc(C)c1Cl [Example 506, (R)-7-(7-Chloro-10-(3-(4-chloro-3,5-dimethylphenoxy)propyl)-4-methyl-1-oxo-6-(1,3,5-trimethyl-1H-pyrazol-4-yl)-3,4-dihydropyrazino[1,2-a]indol-2(1H)-yl)-5-(hydroxymethyl)-1-methyl-1H-indole-3-carboxylic acid] | 1300 | < 0.2 | 
15 | Cc1cc(OCCCc2c3n(c4c(-c5c(C)cc(OCCN(C)C)cc5C)c(Cl)ccc24)[C@H](C)CN(c2cn(C)c4ccc(C(=O)O)cc24)C3=O)cc(C)c1Cl [Example 509, (R)-3-(7-chloro-10-(3-(4-chloro-3,5-dimethylphenoxy)propyl)-6-(4-(2-(dimethylamino)ethoxy)-2,6-dimethylphenyl)-4-methyl-1-oxo-3,4-dihydropyrazino[1,2-a]indol-2(1H)-yl)-1-methyl-1H-indole-5-carboxylic acid] | 390 | 1.6 | 
16 | COCCn1cc(C(=O)O)c2cc(OCCN(C)C)cc(N3C[C@@H](C)n4c(c(CCCOc5cc(C)c(Cl)c(C)c5)c5ccc(Cl)c(-c6c(C)nn(C)c6C)c54)C3=O)c21 [Example 671, (R)-7-(7-chloro-10-(3-(4-chloro-3,5-dimethylphenoxy)propyl)-4-methyl-1-oxo-6-(1,3,5-trimethyl-1H-pyrazol-4-yl)-3,4-dihydropyrazino[1,2-a]indol-2(1H)-yl)-5-(2-(dimethylamino)ethoxy)-1-(2-methoxyethyl)-1H-indole-3-carboxylic acid] | 890 | 0.32 | 
17 | Cc1cccc(Cn2cnc(-c3ccc4c(c3)c(N3C[C@@H](C)n5c(c(CCCOc6cc(C)c(Cl)c(C)c6)c6ccc(Cl)c(-c7c(C)nn(C)c7C)c65)C3=O)cn4CC(=O)N(C)C)n2)n1 [Example 639, (R)-2-(3-(7-Chloro-10-(3-(4-chloro-3,5-dimethylphenoxy)propyl)-4-methyl-1-oxo-6-(1,3,5-trimethyl-1H-pyrazol-4-yl)-3,4-dihydropyrazino[1,2-a]indol-2(1H)-yl)-5-(1-((6-methylpyridin-2-yl)methyl)-1H-1,2,4-triazol-3-yl)-1H-indol-1-yl)-N,N-dimethylacetamide] | 900 | 4.2 | 
